pIC50: −log10 of the molar value.
Assays:
H9 cell or Sup T1 cell = assay: Cytotoxicity by trypan blue dye exclusion; format: cell-based; details: concentration that causes death of cells by 50%, 0.1µM to 100µM tested
HIV-1 protease = biological target: T1, HIV-1 protease (Human immunodeficiency virus type 1 group M subtype B, UniProt P04585); assay: Assay for inhibitory effect on HIV protease (time-dependent inactivation, HPLC readout of oligopeptide substrate cleavage); format: biochemical; details: second order rate constant; 2.6nM HIV-1 protease; 50mM sodium acetate, pH 0.5; KINSIM/FITSIM program
T1 construct: addition of 2.6nM of HIV-1 protease
Experimental: The inhibitory effect on HIV protease of the compounds of the present invention was determined by the following method.
To a buffer solution comprising 50mM sodium acetate, pH 0.5, 1mM dithiothreitol(DTT), 1mM ethylenediamine-tetraacetate (EDTA), 0.75M ammonium sulfate and 0.1% NP 40(NONIGET P-40; Sigma Chemical Co., U.S.A.) was added a measured amount of a compound selected from Compound Nos. 1 to 12 to prepare a preincubation solution. Inhibition reaction was started with the addition of 2.6nM of HIV-1 protease to the preincubation solution. Each of 10µl sample of the reaction solution taken at a given time interval was added to 80µl of assay solution containing […] of reaction substrate in the same buffer solution as above to assay for the residual enzyme activity. In this context, an oligopeptide consisting of 11 amino acids, i.e., H-His-Lys-Ala-Arg-Val-Leu-Phe-(p-NO2)-(Glu-Ala-Ile-Ser-NH2), was used as a reaction substrate, which oligopeptide was to be cleaved in two by the breakage of amide bond between Leu and Phe-(P-NO2) upon the attack of HIV protease. The reaction rate was determined by subjecting the substrate before the reaction and the product after the reaction to HPLC separation and then measuring the relative amount of the product, using the strong absorbance of (p-NO2)-Phe at 280nm. The amounts of reduction in enzyme activity according to the elapsed time were measured and the natural logarithmic values(ln) of the measured amounts were plotted against time to obtain a linear graph and kobs was calculated from the slope of the linear graph.
The inhibition constant was calculated according to the following equation: (1)/(kobs)=(1)/(kina)+(KI)/(kina)(1)/([I]) [formula] wherein: kobs is a rate constant indicating the rate of reduction in enzyme activity according to the elapsed time under the presence of a given concentration of inhibitor, kina is a rate constant indicating the rate of chemical reaction forming covalent bond between an enzyme and an inhibitor in Michaelis-Menten complex, KI is an inhibition constant indicating the dissociation rate of Michaelis-Menten complex into an enzyme and an inhibitor, and [I] means the inhibitor concentration.
The above equation is applicable to an experiment carried out under the condition in which the concentration of inhibitor is far higher than that of enzyme (Steady State Kinetic). […] The inhibition constants KI and kina and second order rate constant kina/KI were obtained by inputting the value of [E]/([E]+[EI]+[EI']) into KINSIM/FITSIM program. In case that second order rate constant kina/KI is larger than 10^9, it is hard to calculate the exact values by KINSIM/FITSIM program [Williams, J.W. and Morrison, J.F., Methods, Enzymol., 63, 437-466([…]); and Zimmerle, C.T. and Frieden, C., J. Biochem., 258, 381-387(1989)].

HIV-1 = assay: Anti-viral activity: syncytium formation (Sup T1) or reverse transcriptase assay (H9); format: cell-based; details: Human immunodeficiency virus 1, concentration that inhibits the proliferation of HIV by 50%, H9 or Sup T1 cell lines, 200 TCID50 of HIV-1
Experimental: The anti-viral activity of the compounds of the present invention was determined by measuring the concentration of the compounds that inhibits the proliferation of HIV by 50%(IC50) through a survey for syncytium formation or reverse transcriptase assay.
1 x 10^5 cells of each of H9(ATCC HTB 176) and Sup T1 cell lines were added to the wells of a 24-well microtiter plate and various concentrations of the compounds of the present invention were added thereto. 200 TCID50(200-fold of 50% tissue culture infection dose) of HIV-1 inoculum and rpmi-1640 medium(Sigma Chemical Co., U.S.A) were added successively to the wells and the plate was incubated at 37°C. In case of Sup T1, the number of syncytium formed was investigated after 3 to 9 days. IC50 of each compound was determined by measuring the concentration of inhibitor that can reduce the number of syncytium by 50% compared with those formed in the same condition without the inhibitor.
In case of H9, three-quarters(3/4) of the culture medium in volume was refreshed every 3 days; and after 9 days, 6ml of the culture fluid was taken and 2.5ml of 30% polyethyleneglycol(PEG, M.W. 6000-8000) and 0.4M NaCl were added thereto. The resulting solution was allowed to stand at 0°C overnight to precipitate virus particles. The solution was centrifuged at 2000rpm for 45 minutes, the supernatant was discarded therefrom and the precipitate was diluted with 20µl of a reverse transcriptase suspension buffer(50mM tris-HCl, pH 7.5, 1mM dithiothreitol, 20% glycerol, 0.25M KCl and 0.25% Triton X-100). The resulting suspension was stored in an Effendorf tube at -70°C until used. A procedure of freezing said virus suspension for 2 minutes in dry ice and thawing same at 37°C for 2 minutes was repeated three times and the resulting suspension was centrifuged at 4°C. The resulting supernatant was used in carrying out the reverse transcriptase assay.
10µl of the said viral suspension was added to a solution of: 10µl of buffer solution(250mM tris-HCl, pH 7.5, 37.5mM MgCl2, 0.25% triton X-100), 1.2µl of 200mM dithiothreitol, 5µl of 100µM oligo(dT)-poly(A)(Boeringer Manheim, 12-18 oligomer), 1µl(1µCi) of ^3H-TTP(Thymidinetri-phosphate) and 23.6µl of water; and the resulting mixture was placed at 37°C. After 1 hour, the mixture was poured onto a WHATMAN DEB1 filter and the filter was washed three times with 5ml of 2 x SSC buffer solution(17.53g of sodium chloride, 8.82g of sodium citrate, pH 7.0, 1 liter of water) for about 10 minutes each time and twice with 95% methanol for 10 seconds. The filter was put onto aluminum foil and dried with an infra-red lamp. The amount of radioactivity was counted using a liquid scintillation counter.

Row | Structure (SMILES) | CT50 (H9 cell or Sup T1 cell) [µM] | kina/KI (HIV-1 protease) | pIC50 (HIV-1)
1 | CC(C)[C@@H](Cc1ccccc1)NC(=O)OC[C@@H]1O[C@@H]1[C@H](Cc1ccccc1)NC(=O)[C@H](CC(N)=O)NC(=O)c1ccc2ccccc2n1 [Example 1, 4S-[N-(2-quinolinecarbonyl)-L-asparaginyl]amino-(3R,2S)-epoxy-5-phenylpentyl N-2R-(1-phenyl-3-methylbutyl) carbamate] | >10 | 10^9 - 10^10 min^-1M^-1 | 6.90
2 | CC(C)[C@H](NC(=O)OC[C@@H]1O[C@@H]1[C@H](Cc1ccccc1)NC(=O)[C@H](CC(N)=O)NC(=O)c1ccc2ccccc2n1)c1ccccc1 [Example 2] | >10 | 10^9 - 10^10 min^-1M^-1 | 6.89
3 | CC(C)C(NC(=O)OC[C@@H]1O[C@@H]1[C@H](Cc1ccccc1)NC(=O)[C@H](CC(N)=O)NC(=O)c1ccc2ccccc2n1)C(C)C [Example 3] | >10 | 10^9 - 10^10 min^-1M^-1 | 6.96
4 | CC(C)[C@@H](Cc1ccccc1)NC(=O)OC[C@@H]1O[C@@H]1[C@H](Cc1ccccc1)NC(=O)[C@@H](NC(=O)OCc1ccccc1)C(C)(C)S(C)(=O)=O [Example 4, 4S-[(N-benzyloxycarbonyl)-β-methanesulfonyl-L-valinyl]amino-(3R,2S)-epoxy-5-phenyl-1-pentyl N-2R-(1-phenyl-3-methylbutyl) carbamate] | >10 | 10^9 - 10^10 min^-1M^-1 | 7.82
5 | CC(C)[C@H](NC(=O)OC[C@@H]1O[C@@H]1[C@H](Cc1ccccc1)NC(=O)[C@@H](NC(=O)OCc1ccccc1)C(C)(C)S(C)(=O)=O)c1ccccc1 [Example 5] | >10 | 10^9 - 10^10 min^-1M^-1 | 7.30
6 | CC(C)C(NC(=O)OC[C@@H]1O[C@@H]1[C@H](Cc1ccccc1)NC(=O)[C@@H](NC(=O)OCc1ccccc1)C(C)(C)S(C)(=O)=O)C(C)C [Example 6] | >10 | 10^9 - 10^10 min^-1M^-1 | 7.30
7 | CC(C)[C@@H](Cc1ccccc1)NC(=O)OC[C@@H]1O[C@@H]1[C@H](Cc1ccccc1)NC(=O)[C@@H](NC(=O)c1ccc2ccccc2n1)C(C)(C)S(C)(=O)=O [Example 7, 4S-[N-(2-quinolinecarbonyl)-β-methanesulfony]-L-valinyl]amino-(3R,2S)-epoxy-5-pheny]-1-pentyl N-2S-(1-phenyl-3-methylbutyl) carbamate] | >10 | 10^9 - 10^10 min^-1M^-1 | 7.70
8 | CC(C)[C@H](NC(=O)OC[C@@H]1O[C@@H]1[C@H](Cc1ccccc1)NC(=O)[C@@H](NC(=O)c1ccc2ccccc2n1)C(C)(C)S(C)(=O)=O)c1ccccc1 [Example 8] | >10 | 10^9 - 10^10 min^-1M^-1 | 7.00
9 | CC(C)C(NC(=O)OC[C@@H]1O[C@@H]1[C@H](Cc1ccccc1)NC(=O)[C@@H](NC(=O)c1ccc2ccccc2n1)C(C)(C)S(C)(=O)=O)C(C)C [Example 9] | >10 | 10^9 - 10^10 min^-1M^-1 | 7.10
10 | CC(C)[C@@H](Cc1ccccc1)NC(=O)OC[C@@H]1O[C@@H]1[C@H](Cc1ccccc1)NC(=O)[C@@H](NC(=O)COc1cccc2cnccc12)C(C)(C)S(C)(=O)=O [Example 10, 4S-[N-(5-isoquinolinyloxymethylenecarbonyl)-β-methanesulfonyl-L-valinyl]amino-(3R,2S)-epoxy-5-phenyl-1-pentyl N-2R-(1-phenyl-3-methylbutyl) carbamate] | >10 | 10^9 - 10^10 min^-1M^-1 | 7.92
11 | CC(C)[C@H](NC(=O)OC[C@@H]1O[C@@H]1[C@H](Cc1ccccc1)NC(=O)[C@@H](NC(=O)COc1cccc2cnccc12)C(C)(C)S(C)(=O)=O)c1ccccc1 [Example 11] | >10 | 10^9 - 10^10 min^-1M^-1 | 7.82
12 | CC(C)C(NC(=O)OC[C@@H]1O[C@@H]1[C@H](Cc1ccccc1)NC(=O)[C@@H](NC(=O)COc1cccc2cnccc12)C(C)(C)S(C)(=O)=O)C(C)C [Example 12] | >10 | 10^9 - 10^10 min^-1M^-1 | 7.30
